Experimental data from patent publication US8877820B2, “Compositions comprising a retinoid and an NFkB-inhibitor and their methods of use” (Johnson & Johnson Consumer Companies, Inc., priority 2010, dated 2014).

System: NF-κB gene reporter in FB293 cells
Assay: NFκB-INHIBITION TEST (luciferase gene reporter, TNFα-stimulated FB293 cells)
Type: cell-based, human
Conditions: for Percent NF-kB Inhibition: FB293 cells, TNFα 100 ng/ml, 24 h; for NF-κB inhibition (in words): summary of Table 2
Description: The NFκB-INHIBITION TEST is conducted in the following manner. FB293 cells, a stable transfected human epithelial cell line containing the gene reporter for NF-κB are used. They may be obtained from, e.g., Panomics (Fremont, Calif.). FB293 are plated at a density of 5×10^4 cells/mL in a suitable medium, e.g., Dulbecco's modified Eagle's medium (DMEM) supplemented with 10% fetal bovine serum (Invitrogen, San Diego, Calif.). The FB293 cells are stimulated with 100 ng/mL of Tumor Necrosis Factor-α (TNFα, available from Sigma-Aldrich of St Louis, Mo.) in the presence of the test sample. Separately, a control sample is tested wherein no test sample is applied. Following a 24-hour incubation at 37° C. with 5% CO2, cells are lysed with 40 μl of reporter lysis buffer (Promega, Madison, Wis.). A 20-μl aliquot of the lysate is assayed using a luciferase assay kit (Promega) and counted for 10 s in a Lmax luminometer (Molecular Devices, Sunnyvale, Calif.) with the data represented as the relative light unit/second. Percent NFκB Inhibition of the test sample is calculated as: NFκB Inhibition=[1−(Lsample/Lcontrol)]*100 where Lsample is the luminescence of the sample and Lcontrol is the luminescence of the control.
The NFκB-INHIBITION TEST described above was performed on test samples of Bay 11-7082 (Sigma-Aldrich, St. Louis, Mo.), Tetrahydrocurcuminoids CG (Sabinsa Corporation, Piscataway, N.J.), as well as various concentrations of 4-hexylresorcinol. The results are shown in Table 2, in which NF-κB Gene Reporter Activation (Luminescence, L) is reported for the test samples and a control sample. Percent NF-κB Inhibition is also reported.

SMILES | Percent NF-kB Inhibition (1 μg/ml) | Percent NF-kB Inhibition (5 μg/ml) | Percent NF-kB Inhibition (10 μg/ml) | Percent NF-kB Inhibition (50 μg/ml) | NF-κB inhibition (in words) | Percent NF-kB Inhibition (25 μM)
CCCCCCc1ccc(O)cc1O [4-Hexylresorcinol, 4-Hexyl resorcinol] | 1.9% | 50.9% | 72.9% | 91.4% | strong NF-κB inhibition | 
Cc1ccc(S(=O)(=O)/C=C/C#N)cc1 [Bay 11-7082, (E)-3-(4-methylphenylsulfonyl)-2-propenenitrile] |  |  |  |  | strong NF-κB inhibition | 89.5%
